The values below come from patent US11465987B2, “Compounds for treatment of cancer” (ONCTERNAL THERAPEUTICS, INC., priority 2012, dated 2022).

For assay [1], the system named is melanoma and prostate cancer cell lines. The assay can be described thus: Antiproliferative activity summarised over the cell line panel (range or average). It is filed as cell-based. The note with it: for antiproliferative activity in words: Tables 1-3.
Assay [2] deals with PC-3 human prostate cancer cell line. Put plainly: cells. The note with it: Homo sapiens. The text has this: (§1) Cells were stained with SRB solution.
In assay [3] the test system is LNCaP human prostate cancer cell line. Put plainly: Cytotoxicity (SRB) assay, LNCaP. It is filed as cell-based.
Description: as §1

In assay [4] the test system is DU 145 human prostate cancer cell line. Put plainly: Cytotoxicity (SRB) assay, DU 145. The format is cell-based. Particulars: Homo sapiens.
Description: as §1

Assay [5] has as its system PPC-1 human prostate cancer cell line. Put plainly: Cytotoxicity (SRB) assay, PPC-1. It is filed as cell-based. The note with it: Homo sapiens.
Description: as §1

Where [6] appears, read: read-out: IC50 PC-3, SRB assay, prostate cancer PC-3.
Setting [7] is: Tables 1-2, read-out: IC50 (range or bound over tested cell lines).
Setting [8] is: range over prostate cancer cell lines, read-out: IC50 range against prostate cancer cells.
Setting [9] is: Homo sapiens, LNCaP, SRB assay, prostate cancer LNCaP, read-out: IC50 LNCaP.
[10] abbreviates: PPC-1, SRB assay, prostate cancer PPC-1, read-out: IC50 PPC-1.
Setting [11] is: read-out: IC50 ± SEM, PC-3, Table 13.
[12] abbreviates: Tables 11-13, read-out: IC50 (average of all seven cell lines).
Where [13] appears, read: DU-145, Table 13A, read-out: inhibitory effects, DU145.
[14] abbreviates: Homo sapiens, LNCaP, Table 13A, read-out: inhibitory effects, LNCaP.
[15] abbreviates: PPC-1, Table 13A, read-out: inhibitory effects, PPC1.
Setting [16] is: DU-145, Table 6A, read-out: IC50 ± SEM, DU 145.
Where [17] appears, read: read-out: IC50 ± SEM, PC-3, Table 6A.
Where [18] appears, read: PPC-1, Table 6A, read-out: IC50 ± SEM, PPC-1 (converted).

Structures can show the parent of a compound that is named as a salt. Where two headings read alike, the source gives them in different places. Bounds are passed on as bounds.

With `COc1cc(C(=O)c2cccc(-c3ccccc3)c2)cc(OC)c1OC` [1a, Biphenyl-3-yl(3,4,5-trimethoxyphenyl)methanone], the “antiproliferative activity in words” value in assay [1] was “hundreds of nanomolar range”.
`COc1cc(C(=O)c2cc(-c3ccccc3)ncn2)cc(OC)c1OC` [1b, (6-Phenylpyrimidin-4-yl)(3,4,5-trimethoxyphenyl)methanone]: the figures for the IC50 in assay [2] (setting [6]) and in assay [1] (setting [7]) were 8.3 µM and 3.7 to 8.3 µM, respectively.
Regarding `COc1cc(C(=O)c2ccc(-c3ccccc3)o2)cc(OC)c1OC` [1d, (5-Phenylfuran-2-yl)(3,4,5-trimethoxyphenyl)methanone], the IC50 is 0.021 µM in assay [2] (setting [6]) and 0.012 to 0.035 µM in assay [1] (setting [8]).
For `COc1cc(C(=O)c2cnc(-c3ccccc3)s2)cc(OC)c1OC` [1e, (2-Phenylthiazol-5-yl)(3,4,5-trimethoxyphenyl)methanone], the IC50 in assay [1] (setting [7]) is more than 10 µM.
With `COc1cc(C(=O)c2csc(-c3ccccc3)c2)cc(OC)c1OC` [1f, (5-Phenylthiophen-3-yl)(3,4,5-trimethoxyphenyl)methanone], the IC50 in assay [2] (setting [6]) was 0.012 µM; in assay [1] (setting [8]), 0.012 to 0.035 µM.
Turning to `COc1cc(C(=O)N2CCC(c3ccccc3)CC2)cc(OC)c1OC` [1g, (4-Phenylpiperidin-1-yl)(3,4,5-trimethoxyphenyl)methanone], the IC50 in assay [1] (setting [7]) is more than 20 µM.
On the same count and under the same terms, the value for `COc1cc(C(=O)c2cc(-c3ccccc3)on2)cc(OC)c1OC` [1i, (5-Phenylisoxazol-3-yl)(3,4,5-trimethoxyphenyl)methanone] was more than 10 µM.
Take `COc1cc(C(O)c2csc(-c3ccccc3)n2)cc(OC)c1OC` (stereo not shown) [2b, (2-Phenylthiazol-4-yl)(3,4,5-trimethoxyphenyl)methanol]: in assay [2] (setting [6]), the IC50 is more than 10 µM. Besides, in assay [1], the “antiproliferative activity in words” value is “inactive”.
For `COc1cc(/C(=N/O)c2csc(-c3ccccc3)n2)cc(OC)c1OC` [2e-cis, (Z)-(2-Phenylthiazol-4-yl)(3,4,5-trimethoxyphenyl)methanone oxime], the IC50 in assay [2] (setting [6]) was 0.12 µM; in assay [1] (setting [7]), 0.1 to 0.3 µM. Moreover, the “fold more activity than anti-isomer” value in assay [1] (2e-cis vs 2e-trans) is on record as 10 fold.
As to `COc1cc(/C(=N\O)c2csc(-c3ccccc3)n2)cc(OC)c1OC` [2e-trans, (E)-(2-Phenylthiazol-4-yl)(3,4,5-trimethoxyphenyl)methanone oxime], the IC50 in assay [2] (setting [6]) and in assay [1] (setting [7]) was more than 10 µM throughout.
On to `COc1cc(NC(=O)c2csc(-c3ccccc3)n2)cc(OC)c1OC` [2g, 2-Phenyl-N-(3,4,5-trimethoxyphenyl)thiazole-4-carboxamide], for which the IC50 in assay [2] (setting [6]) and in assay [3] (setting [9]) was more than 10 µM in each case.
As for `CNCc1ccc(-c2nc(C(=O)c3cc(OC)c(OC)c(OC)c3)cs2)cc1.Cl` [2s, (2-(4-((Methylamino)methyl)phenyl)thiazol-4-yl)(3,4,5-trimethoxyphenyl)methanone hydrochloride], the IC50 is more than 10 µM in assay [4] (SRB assay, prostate cancer DU 145, read-out: IC50 DU 145) and more than 10 µM in assay [2] (read-out: IC50 PC-3). In assay [1], the “antiproliferative activity in words” value is on record as “abrogated activity”.
In the case of `COc1cc(C(=O)c2csc(-c3ccc(CN(C)C)cc3)n2)cc(OC)c1OC.Cl` [2u, (2-(4-((Dimethylamino)methyl)phenyl)thiazol-4-yl)(3,4,5-trimethoxyphenyl)methanone hydrochloride], the IC50 in assay [2] (setting [6]) is more than 10 µM. Besides, in assay [1], the “antiproliferative activity in words” value was “abrogated activity”.
For the compound `COc1cc(C(=O)c2csc(Nc3ccc(C)cc3)n2)cc(OC)c1OC` [5Hb, (2-(p-tolylamino)thiazol-4-yl)(3,4,5-trimethoxyphenyl)methanone hydrochloride salt], the IC50 was 0.035 ± 0.001 µM in assay [4] (DU-145, SRB assay, prostate cancer DU 145, read-out: IC50 DU 145); 0.038 ± 0.002 µM in assay [2] (setting [6]); 0.035 ± 0.001 µM in assay [3] (setting [9]); 0.036 ± 0.001 µM in assay [5] (setting [10]).
Consider `COc1cc(C(=O)c2cn(S(=O)(=O)c3ccccc3)c(-c3cc(OC)c(OC)c(OC)c3)n2)cc(OC)c1OC` [11ea, (1-(phenylsulfonyl)-2-(3,4,5-trimethoxyphenyl)-1H-imidazol-4-yl)(3,4,5-trimethoxyphenyl)methanone], for which the IC50 in assay [2] (setting [11]) is more than 10 µM; in assay [1] (setting [12]) it was 1 to 50 µM.
On the same counts, the results for `COc1cc(-c2nc(C(=O)c3ccc(F)cc3)cn2S(=O)(=O)c2ccccc2)cc(OC)c1OC` [11eb, (4-fluorophenyl)(1-(phenylsulfonyl)-2-(3,4,5-trimethoxyphenyl)-1H-imidazol-4-yl)methanone] are more than 10 µM and 1 to 50 µM.
With `COc1ccc(-c2nc(C(=O)c3ccc(F)cc3)cn2S(=O)(=O)c2ccccc2)cc1OC` [11hb, (2-(3,4-dimethoxyphenyl)-1-(phenylsulfonyl)-1H-imidazol-4-yl)(4-fluorophenyl)methanone], the figures for the IC50 in assay [2] (setting [11]) and in assay [1] (setting [12]) were 10 µM and 1 to 50 µM, respectively.
On the same counts, the results for `COc1cc(C(=O)c2cn(S(=O)(=O)c3ccccc3)c(-c3ccccc3C(F)(F)F)n2)cc(OC)c1OC` [11ia, (1-(phenylsulfonyl)-2-(2-(trifluoromethyl)phenyl)-1H-imidazol-4-yl)(3,4,5-trimethoxyphenyl)methanone] are more than 10 µM and 1 to 50 µM.
The corresponding values for `O=C(c1ccc(F)cc1)c1cn(S(=O)(=O)c2ccccc2)c(-c2ccccc2C(F)(F)F)n1` [11ib, (1-(phenylsulfonyl)-2-(2-(trifluoromethyl)phenyl)-1H-imidazol-4-yl)(4-fluorophenyl)methanone] are more than 10 µM and 1 to 50 µM.
As for `COc1cc(-c2nc(C(=O)c3ccc(F)cc3)c[nH]2)cc(OC)c1OC` [12eb], the IC50 in assay [1] (setting [12]) lay within 1 to 50 µM.
`COc1cc(C(=O)[C@H]2COC(c3ccccc3)=N2)cc(OC)c1OC` [35a, (2R)-(2-Phenyl-4,5-dihydro-oxazol-4-yl)-(3,4,5-trimethoxy-phenyl)-methanone]: the “antiproliferative activity in words” value in assay [1] was “hundreds of nanomolar range”.
Take `COc1cc(C(=O)c2coc(-c3ccccc3)n2)cc(OC)c1OC` [36a, (2-Phenyl-oxazol-4-yl)-(3,4,5-trimethoxy-phenyl)-methanone]: the “antiproliferative activity in words” value in assay [1] was “hundreds of nanomolar range”.
For the compound `COc1cc(C(=O)c2csc(-c3ccc4[nH]ccc4c3)n2)cc(OC)c1OC` [66a], the IC50 in assay [2] (setting [6]) was 0.007 µM; in assay [1] (read-out: IC50 (range over tested cell lines)) it was 0.007 to 0.025 µM.
Consider `CCCn1cc(-c2ccccc2)nc1C(=O)c1cc(OC)c(OC)c(OC)c1` [70ab], for which the IC50 is 0.0716 µM in assay [4] (DU-145, read-out: inhibitory effects, DU145); 0.0256 µM in assay [2] (read-out: inhibitory effects, PC3); 0.0494 µM in assay [3] (Homo sapiens, LNCaP, read-out: inhibitory effects, LNCaP); 0.0098 µM in assay [5] (PPC-1, read-out: inhibitory effects, PPC1).
`COc1cc(C(=O)c2nc(-c3ccccc3)cn2C(C)C)cc(OC)c1OC` [70ac]: the IC50 is 0.114 µM in assay [4] (setting [13]); 0.0525 µM in assay [2] (read-out: inhibitory effects, PC3, Table 13A); 0.0622 µM in assay [3] (setting [14]); 0.015 µM in assay [5] (setting [15]).
As for `COc1cc(C(=O)c2nc(-c3ccccc3)cn2-c2ccccn2)cc(OC)c1OC` [70ad], the IC50 came to 0.0363 µM in assay [4] (setting [13]), 0.0195 µM in assay [3] (setting [14]) and 0.0078 µM in assay [5] (setting [15]).
In the case of `COc1cc(C(=O)c2nc(-c3ccc(C)cc3)c[nH]2)cc(OC)c1OC` [70f, (4-p-Tolyl-1H-imidazol-2-yl)(3,4,5-trimethoxyphenyl)methanone and (5-p-tolyl-H-imidazol-2-yl)(3,4,5-trimethoxyphenyl)methanone], the IC50 in assay [3] (Table 13A, read-out: inhibitory effects, LNCaP) was found to be 0.013 µM.
Take `O=C(c1ccc(F)cc1)N1CCC(c2ccccc2)CC1` [compound 22]: the IC50 in assay [4] (setting [16]), in assay [2] (setting [17]) and in assay [5] (setting [18]) was more than 20 µM throughout.
Turning to `COc1cc(C(=O)c2csc(-c3ccccc3)n2)cc(OC)c1OC(=O)C(F)(F)F` [compound 23], the IC50 in assay [4] (setting [16]), in assay [2] (setting [17]) and in assay [5] (setting [18]) was approximately 10 µM in each case.
With `COc1cc(-c2nc(C(=O)c3ccc(F)cc3)cn2C(=O)c2ccc(F)cc2)cc(OC)c1OC` [compound 30], the IC50 in assay [4] (setting [16]), in assay [2] (setting [17]) and in assay [5] (setting [18]) was more than 10 µM each time.
`O=C(c1cc(O)c(O)c(O)c1)c1csc(-c2ccccc2)n1` [compound 33]: the IC50 in assay [4] (setting [16]), in assay [2] (setting [17]) and in assay [5] (setting [18]) was more than 2 µM each time.
For `COc1cc(C(=O)c2csc(-c3ccccc3)n2)cc(OC)c1O` [compound 34], the IC50 in assay [4] (setting [16]), in assay [2] (setting [17]) and in assay [5] (setting [18]) was more than 10 µM in each case.
`COc1cc(C(=O)C2N(C)C=C(c3ccccc3)N2C)cc(OC)c1OC` (stereo not shown) [compound 105, (1,3-Dimethyl-4-phenyl-2,3-dihydro-1H-imidazol-2-yl)(3,4,5-trimethoxyphenyl)methanone]: the results for the IC50 in assay [2] (setting [6]), in assay [3] (setting [9]) and in assay [5] (setting [10]) were 3.49 µM, 4.24 µM and 5.29 µM, respectively.
